The source made the active and inactive calls. No cut-off for these calls is given here.
Columns and labels:
[1] = target: Neuronal acetylcholine receptor subunit alpha-4 (Gallus gallus) (UniProt P09482); assay: Agonist activity at chicken nACh receptor alpha4beta2 expressed in Xenopus laevis oocytes assessed as time taken for current to decay from its peak to 50% at 100 nM by two-electrode voltage clamp assay; format: functional, cell-based; settings: Oocyte
Tetronarce californica [2] = assay: Binding affinity to Torpedo californica nACh receptor in reconstituted diphytanoylphosphatidylcholine/cholesterol vesicles
Tetronarce californica [3] = assay: Displacement of non fluorescent acetylcholine from torpedo californica nACh receptor

Chain of Neuronal acetylcholine receptor subunit alpha-4 (Gallus gallus) (P09482 whole entry): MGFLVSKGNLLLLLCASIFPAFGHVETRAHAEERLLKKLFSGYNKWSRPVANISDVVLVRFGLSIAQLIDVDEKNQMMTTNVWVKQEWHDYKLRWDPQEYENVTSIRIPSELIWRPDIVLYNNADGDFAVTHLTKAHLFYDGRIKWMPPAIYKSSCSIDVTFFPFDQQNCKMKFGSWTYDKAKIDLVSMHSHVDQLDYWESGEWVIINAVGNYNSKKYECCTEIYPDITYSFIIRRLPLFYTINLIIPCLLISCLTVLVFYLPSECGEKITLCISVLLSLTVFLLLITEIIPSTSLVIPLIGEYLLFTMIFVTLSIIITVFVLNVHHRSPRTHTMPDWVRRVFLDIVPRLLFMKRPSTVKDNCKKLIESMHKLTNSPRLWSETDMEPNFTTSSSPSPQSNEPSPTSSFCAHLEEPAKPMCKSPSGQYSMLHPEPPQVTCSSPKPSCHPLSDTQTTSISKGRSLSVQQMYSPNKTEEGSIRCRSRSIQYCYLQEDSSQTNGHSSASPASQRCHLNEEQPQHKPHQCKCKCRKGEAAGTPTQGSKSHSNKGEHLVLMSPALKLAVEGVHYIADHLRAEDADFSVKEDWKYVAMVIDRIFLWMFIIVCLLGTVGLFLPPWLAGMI

In the case of `CCN1/C(=C/C=C/C2=[N+](CCCCCC(=O)NCCCC(=O)OCC[N+](C)(C)C)c3ccc(S(=O)(=O)[O-])cc3C2(C)C)C(C)(C)c2cc(S(=O)(=O)[O-])ccc21`, the T1/2 [1] is reported as 25 s, the Activity (Tetronarce californica [2]) is reported as “Active” and the Activity (Tetronarce californica [3]) is reported as “Active”.
